Assay results taken from article PMC9750858, “Rapid biosensor development using plant hormone receptors as reprogrammable scaffolds” (Nature Biotechnology, 2022).
Several values for one entry are separate records, joined by “and”; a condition that tells them apart may be missing. Identical values can stand only once.

Tests used:
PYR1^DIAZI = PYR1^DIAZI (Arabidopsis thaliana, UniProt O49686, A160V/E8G/F108Y/F159G/L87M/M158V/V81Y); experiment: Split NanoLuc luciferase complementation in yeast, NLuc^N-PYR1^DIAZI/NLuc^C-HAB1; type: cell-based; parameters: >PYR1-DIAZI; expressed in transfected cells; host or cells: Saccharomyces cerevisiae BY4742; conditions: Figure 4f(top), 3 replicates
PYR1^DIAZI, sequence (Q9CAJ0 179-511): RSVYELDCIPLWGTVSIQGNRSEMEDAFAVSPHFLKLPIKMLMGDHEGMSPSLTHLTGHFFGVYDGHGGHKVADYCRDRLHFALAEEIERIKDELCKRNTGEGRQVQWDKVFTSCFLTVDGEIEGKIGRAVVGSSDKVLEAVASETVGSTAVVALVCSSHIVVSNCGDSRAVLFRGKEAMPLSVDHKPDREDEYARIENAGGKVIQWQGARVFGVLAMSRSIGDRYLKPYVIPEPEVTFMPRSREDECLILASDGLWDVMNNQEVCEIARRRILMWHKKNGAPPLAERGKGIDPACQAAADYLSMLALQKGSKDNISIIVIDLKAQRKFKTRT
PYR1^DIAZI, sequence (O49686 other isoform, or with tags, fused parts or gaps E8G/V81Y/L87M/F108Y/M158V/F159G/A160V): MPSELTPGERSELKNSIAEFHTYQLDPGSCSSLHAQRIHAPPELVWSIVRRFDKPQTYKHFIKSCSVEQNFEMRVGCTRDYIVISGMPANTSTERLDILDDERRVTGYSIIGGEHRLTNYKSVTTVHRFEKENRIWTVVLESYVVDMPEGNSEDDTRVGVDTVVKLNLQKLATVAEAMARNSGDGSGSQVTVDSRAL

PYR1^PIRI = target: T1, PYR1^PIRI (Arabidopsis thaliana, UniProt O49686, A160T/E130G/F159T/K59R/N119S/S122Q/S92M/V174A); experiment: Split NanoLuc luciferase complementation in yeast, NLuc^N-PYR1^PIRI/NLuc^C-HAB1; type: cell-based; conditions: Figure 4f(bottom), replicates
T1 construct: >PYR1-PIRI; expressed in transfected cells; host or cells: Saccharomyces cerevisiae BY4742
T1 sequence (O49686 other isoform, or with tags, fused parts or gaps K59R/S92M/N119S/S122Q/E130G/F159T/A160T/V174A): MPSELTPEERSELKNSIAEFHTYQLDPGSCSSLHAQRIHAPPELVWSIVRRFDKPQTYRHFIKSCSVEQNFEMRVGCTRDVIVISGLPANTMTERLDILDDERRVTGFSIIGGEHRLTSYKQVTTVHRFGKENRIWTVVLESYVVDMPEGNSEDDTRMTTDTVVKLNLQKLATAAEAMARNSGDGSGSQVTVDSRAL
T1 sequence (Q9CAJ0 179-511, further chain): as the sequence (Q9CAJ0 179-511) above

[1] = tested on: PYR1-derived cannabinoid receptors (PYR1 mutants) binding HAB1; conditions: for cannabinoid concentration to which CB-S1 library clones respond (as low as): clones from shuffled library CB-S1; for selectivity of Y2H response of the sensor evolved for the ligand: PYR1^CBDA or PYR1^CP 47,497, all ligands tested at 25 µM
PYR1^WIN-M = target: T2, PYR1^WIN-M (Arabidopsis thaliana, UniProt O49686, A160I/D26G/E4G/F159A/H60P/K59Q/N90S/Y23H); experiment: ELISA-like plate assay, immobilized PYR1^WIN-M, biotinylated ΔN-HAB1^T+; type: binding; conditions: replicates
T2 construct: made in house
T2 sequence (O49686 with tags, fused parts or gaps E4G/Y23H/D26G/K59Q/H60P/N90S/F159A/A160I): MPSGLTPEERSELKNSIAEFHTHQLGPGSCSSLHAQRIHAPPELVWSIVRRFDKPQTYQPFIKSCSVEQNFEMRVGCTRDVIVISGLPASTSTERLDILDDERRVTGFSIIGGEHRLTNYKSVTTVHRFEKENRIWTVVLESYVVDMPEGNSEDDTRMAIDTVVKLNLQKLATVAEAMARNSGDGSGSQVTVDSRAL

SMILES: COP(=S)(OC)Oc1ccc([N+](=O)[O-])cc1 [Parathion-methyl, parathion-methyl]
- Sensor signal (Figure 4f top), replicate values (PYR1^DIAZI; [Agonist] 1e-5 nM): 15.0369 and 11.1106 and 15.282
- Sensor signal (Figure 4f top), replicate values (PYR1^DIAZI; [Agonist] 0.5 nM): 71.449 and 15.1942 and 16.4674
- Sensor signal (Figure 4f top), replicate values (PYR1^DIAZI; [Agonist] 1 nM): 69.4998 and 48.0045 and 15.815
- Sensor signal (Figure 4f top), replicate values (PYR1^DIAZI; [Agonist] 10 nM): 30.1106 and 67.3607 and 15.8069
- Sensor signal (Figure 4f top), replicate values (PYR1^DIAZI; [Agonist] 100 nM): 15.5477 and 62.6829 and 17.0922
- Sensor signal (Figure 4f top), replicate values (PYR1^DIAZI; [Agonist] 1000 nM): 34.4735 and 76.5381 and 29.0859
- Sensor signal (Figure 4f top), replicate values (PYR1^DIAZI; [Agonist] 10000 nM): 73.5456 and 54.5583 and 65.8713
- Sensor signal (Figure 4f top), replicate values (PYR1^DIAZI; [Agonist] 100000 nM): 78.279 and 10.2013 and 20.8749
- Sensor signal (Figure 4f bottom), replicate values (PYR1^PIRI; [Agonist] 1e-5 nM): 11.8454 and 17.8157 and 9.952
- Sensor signal (Figure 4f bottom), replicate values (PYR1^PIRI; [Agonist] 0.5 nM): 11.1865 and 13.661 and 9.612
- Sensor signal (Figure 4f bottom), replicate values (PYR1^PIRI; [Agonist] 1 nM): 11.9354 and 18.4849 and 9.205
- Sensor signal (Figure 4f bottom), replicate values (PYR1^PIRI; [Agonist] 10 nM): 10.4509 and 13.1415 and 9.783
- Sensor signal (Figure 4f bottom), replicate values (PYR1^PIRI; [Agonist] 100 nM): 9.423 and 12.7271 and 15.286
- Sensor signal (Figure 4f bottom), replicate values (PYR1^PIRI; [Agonist] 1000 nM): 9.542 and 20.0758 and 23.4336
- Sensor signal (Figure 4f bottom), replicate values (PYR1^PIRI; [Agonist] 10000 nM): 13.1296 and 21.6675 and 76.706
- Sensor signal (Figure 4f bottom), replicate values (PYR1^PIRI; [Agonist] 100000 nM): 11.2909 and 29.034 and 72.4977

SMILES: CCCn1c(C)c(C(=O)c2cccc3ccccc23)c2ccccc21 [JWH-015]
- cannabinoid concentration to which CB-S1 library clones respond (as low as) [1]: 100 nM

SMILES: CCCCCn1cc(C(=O)c2cccc3ccccc23)c2ccccc21 [JWH-018]
- cannabinoid concentration to which CB-S1 library clones respond (as low as) [1]: 500 nM

SMILES: CCCCCCC(C)(C)c1ccc(C2CCCC(O)C2)c(O)c1 (stereo not drawn) [CP 47,497, cannabicyclohexanol]
- selectivity of Y2H response of the sensor evolved for the ligand [1]: selectively responds
- ELISA signal generation, receptor cross-reactivity (source data) (PYR1^WIN-M; cannabinoid at 2 nM, 497): 0.117 and 0.142 and 0.12
- ELISA signal generation, receptor cross-reactivity (source data) (PYR1^WIN-M; cannabinoid at 2 μM, 497): 0.105 (2×) and 0.078

SMILES: CCCCn1c(C)c(C(=O)c2cccc3ccccc23)c2ccccc21 [JWH-016]
- cannabinoid concentration to which CB-S1 library clones respond (as low as) [1]: 50 nM

SMILES: C=C(C)[C@@H]1CCC(C)=C[C@H]1c1c(O)cc(CCCCC)c(C(=O)O)c1O [CBDA, cannabidiolic acid]
- selectivity of Y2H response of the sensor evolved for the ligand [1]: selectively responds

SMILES: CCCn1cc(C(=O)c2cccc3ccccc23)c2ccccc21 [JWH-072]
- cannabinoid concentration to which CB-S1 library clones respond (as low as) [1]: 50 nM
- ELISA signal generation, receptor cross-reactivity (source data) (PYR1^WIN-M; cannabinoid at 2 nM): 0.289 and 0.097 and 0.074
- ELISA signal generation, receptor cross-reactivity (source data) (PYR1^WIN-M; cannabinoid at 2 μM): 0.219 and 0.29 and 0.268

SMILES: CCOP(=O)(OCC)Oc1ccc([N+](=O)[O-])cc1 [Paraoxon]
- Sensor signal (Figure 4f top), replicate values (PYR1^DIAZI; [Agonist] 1e-5 nM): 10.8821 and 10.8818 and 16.2674
- Sensor signal (Figure 4f top), replicate values (PYR1^DIAZI; [Agonist] 0.5 nM): 11.8181 and 17.5251 and 16.6639
- Sensor signal (Figure 4f top), replicate values (PYR1^DIAZI; [Agonist] 1 nM): 24.3604 and 44.2392 and 23.2398
- Sensor signal (Figure 4f top), replicate values (PYR1^DIAZI; [Agonist] 10 nM): 60.5829 and 64.6146 and 19.0156
- Sensor signal (Figure 4f top), replicate values (PYR1^DIAZI; [Agonist] 100 nM): 14.8147 and 62.8846 and 19.484
- Sensor signal (Figure 4f top), replicate values (PYR1^DIAZI; [Agonist] 1000 nM): 35.1388 and 74.2295 and 30.1748
- Sensor signal (Figure 4f top), replicate values (PYR1^DIAZI; [Agonist] 10000 nM): 83.5675 and 57.6349 and 70.6242
- Sensor signal (Figure 4f top), replicate values (PYR1^DIAZI; [Agonist] 100000 nM): 100.899 and 20.8486 and 98.4357
- Sensor signal (Figure 4f bottom), replicate values (PYR1^PIRI; [Agonist] 1e-5 nM): 11.9047 and 18.1515 and 10.4931
- Sensor signal (Figure 4f bottom), replicate values (PYR1^PIRI; [Agonist] 0.5 nM): 11.0975 and 13.4157 and 8.837
- Sensor signal (Figure 4f bottom), replicate values (PYR1^PIRI; [Agonist] 1 nM): 12.5918 and 18.7436 and 9.615
- Sensor signal (Figure 4f bottom), replicate values (PYR1^PIRI; [Agonist] 10 nM): 11.1224 and 13.1225 and 9.775
- Sensor signal (Figure 4f bottom), replicate values (PYR1^PIRI; [Agonist] 100 nM): 10.0591 and 11.6876 and 14.7625
- Sensor signal (Figure 4f bottom), replicate values (PYR1^PIRI; [Agonist] 1000 nM): 10.1585 and 20.7126 and 25.0764
- Sensor signal (Figure 4f bottom), replicate values (PYR1^PIRI; [Agonist] 10000 nM): 13.1804 and 18.2375 and 74.7884
- Sensor signal (Figure 4f bottom), replicate values (PYR1^PIRI; [Agonist] 100000 nM): 12.8083 and 10.7531 and 85.8371
